Assay results published in patent publication US6475531B1, “Safe botanical drug for treatment and prevention of influenza and increasing immune function” (priority 2001, dated 2002).
≈ marks a conversion by molar mass, not a printed value.

Tests used:
Format in all cases: cell-based, influenza A viruses
A/Singapore/1/75 (H2N2) = experiment: microbe, parasite or virus in culture; conditions: Influenza A virus, H2N2, MDCK
A/Brazil/11/78 (H1N1) = experiment: Plaque inhibition assay in MDCK cells; conditions: Influenza A virus
A/Beijing/32/92 (H3N2) = experiment: Plaque inhibition assay in MDCK cells; conditions: Influenza A virus
A/England/939/69 = experiment: Plaque inhibition assay in MDCK cells; conditions: Influenza A virus

Row | SMILES | IC50 (A/Singapore/1/75 (H2N2)) | IC50 (A/Brazil/11/78 (H1N1)) | IC50 (A/Beijing/32/92 (H3N2)) | IC50 (A/England/939/69)
1 | NC12CC3CC(CC(C3)C1)C2 [Amantadine] | 11 mg/L (≈ 72.7 µM) | 38 mg/L (≈ 251 µM) | 25 mg/L (≈ 165 µM) | 21 mg/L (≈ 139 µM)
2 | NC(=O)c1ncn([C@@H]2O[C@H](CO)[C@@H](O)[C@H]2O)n1 [Ribavirin] | 82 mg/L (≈ 336 µM) | 56 mg/L (≈ 229 µM) | 90 mg/L (≈ 369 µM) | 46 mg/L (≈ 188 µM)
